Experimental data taken from BindingDB's records for doi:10.1021/jm00087a023 (American Cyanamid, 1992).

Experiment: Inhibition of PAF induced platelet aggregation in rabbit

| Structure (SMILES) | IC50 |
| --- | --- |
| CCCCCCCCCCCCCCOc1cccc(OP(=O)([O-])Oc2cccc(C[n+]3c[nH]c4ccccc43)c2)c1OC | 1.49 µM |
| CCCCCCCCCCCCCCCCOCC(COP(=O)(O)Oc1cccc(C[P+](c2ccccc2)(c2ccccc2)c2ccccc2)c1)OC (configuration not stated) | 13.6 µM |
